Data reported in US20200181284A1, “EPIGENETIC INHIBITORS FOR SENSITIZING HEMATOLOGIC OR OTHER MALIGNANCIES TO GLUCOCORTICOID THERAPY” (UNIVERSITY OF SOUTHERN CALIFORNIA, priority 2017, published 2020).

Legend:
[1] = test system: lung, breast and glioblastoma cancers; conditions: dosages of 5-50 mg/kg; cited from earlier work
[2] = biological target: T1, hG9a (Homo sapiens, UniProt Q96KQ7); experiment: Methylation of HA-hG9a in Cos-7 cells (pan met-K immunoprecipitation/immunoblot); assay type: cell-based, African green monkey; conditions: Cos-7 cells, 2 μM inhibitor, 24 h
T1 construct: transfected with a plasmid encoding full length HA-hG9a and treated with 2 μM UNC0646; expressed in transfected cells; host or cells: Cos-7
T1 sequence (Q96KQ7 1-1210): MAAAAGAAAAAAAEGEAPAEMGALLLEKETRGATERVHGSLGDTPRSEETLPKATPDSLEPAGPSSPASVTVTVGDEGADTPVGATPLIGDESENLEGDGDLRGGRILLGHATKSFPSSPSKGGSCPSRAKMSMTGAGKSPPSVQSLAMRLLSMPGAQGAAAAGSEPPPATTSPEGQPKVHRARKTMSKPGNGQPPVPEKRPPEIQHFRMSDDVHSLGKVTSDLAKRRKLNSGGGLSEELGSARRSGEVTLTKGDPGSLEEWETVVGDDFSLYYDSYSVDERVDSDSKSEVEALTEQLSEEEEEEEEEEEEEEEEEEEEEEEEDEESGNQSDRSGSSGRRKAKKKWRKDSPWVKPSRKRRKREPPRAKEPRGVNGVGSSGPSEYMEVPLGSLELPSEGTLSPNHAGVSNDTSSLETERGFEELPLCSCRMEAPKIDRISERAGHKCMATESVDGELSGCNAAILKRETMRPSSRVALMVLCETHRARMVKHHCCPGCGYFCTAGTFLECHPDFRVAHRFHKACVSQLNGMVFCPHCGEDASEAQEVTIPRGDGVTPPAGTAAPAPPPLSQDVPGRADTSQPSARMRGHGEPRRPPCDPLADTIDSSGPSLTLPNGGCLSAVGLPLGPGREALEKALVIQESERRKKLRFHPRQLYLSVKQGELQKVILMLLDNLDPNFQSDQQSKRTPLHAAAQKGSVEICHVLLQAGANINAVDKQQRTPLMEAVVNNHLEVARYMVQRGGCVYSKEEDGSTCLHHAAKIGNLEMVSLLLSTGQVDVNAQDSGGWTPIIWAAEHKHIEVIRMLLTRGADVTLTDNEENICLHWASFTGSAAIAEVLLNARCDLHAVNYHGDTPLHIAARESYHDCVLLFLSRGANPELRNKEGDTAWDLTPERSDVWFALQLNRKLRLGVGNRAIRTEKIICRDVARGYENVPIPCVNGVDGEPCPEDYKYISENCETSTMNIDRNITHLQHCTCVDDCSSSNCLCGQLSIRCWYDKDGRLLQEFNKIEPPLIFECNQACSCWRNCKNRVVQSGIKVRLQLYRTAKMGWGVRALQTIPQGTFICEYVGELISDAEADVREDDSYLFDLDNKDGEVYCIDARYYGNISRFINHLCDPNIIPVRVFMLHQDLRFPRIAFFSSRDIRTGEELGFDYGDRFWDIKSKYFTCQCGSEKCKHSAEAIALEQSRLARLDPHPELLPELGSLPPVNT
Experimental: (§1) Cells were transiently transfected (where indicated) using Lipofectamine 2000 (Invitrogen) with 5 μg each of the indicated plasmids according to the manufacturer's protocol. […] Protein extracts were incubated with 1 μg of the indicated primary antibodies overnight at 4° C. with shaking. Protein A/G Plus Agarose (Santa Cruz sc-2003) beads were added and the mixture was incubated 2 hr at 4° C. The immunoprecipitates were separated on SDS-PAGE. Immunoblotting was conducted with primary antibodies against HA epitope (3F10 Roche Applied Science); G9a (G6919), FLAG (F1804), (3-actin (A5441), or GAPDH (G9545) from Sigma; aurora kinase B (ab2254), HP1γ (ab10480), HP1γ (ab56978), phospho-593-HP1γ (ab45270) or pan methyllysine (ab23366) from Abcam; GR (sc-8992) from Santa Cruz; GLP (09-078), or pan phospho-threonine (AB1607) from Millipore; phospho-S211-GR (#4161), H3K9me3 (#13969), H3S10ph (#53348), Histone H3 (#4499) from Cell signaling; or E-cadherin (610182) from BD transduction laboratories. Secondary antibodies from Santa Cruz Biotechnology (anti-rat) and Promega (anti-rabbit and anti-mouse) were used for chemiluminescence detection using Super Signal West Dura (Thermo Scientific) for proteins with low expression levels and ECL prime detection reagent (Amersham) for all other proteins according to the manufacturers' instructions. In immunoprecipitation experiments 3% of the input of each sample was analyzed by immunoblot using the antibodies listed.
(§2) Lysates were immunoprecipitated (IP) with pan met-K antibody and immunoblotted with HA antibody (top), or the usage of the two antibodies was reversed (bottom). Expression of HA-tagged proteins and β-actin (loading control) in the unfractionated extracts is shown at the bottom (Input). For FIG. 17D, Cos-7 cells were transfected with a plasmid encoding full length HA-hG9a and treated with 2 μM UNC0646 or vehicle DMSO for 24 h. Lysates were immunoprecipitated with pan met-K antibody and immunoblotted with HA antibody (top), or the usage of the two antibodies was reversed (bottom).
(§3) Lysates were immunoprecipitated with pan met-K antibody and immunoblotted with HA antibody (top).

[3] = biological target: T2, hG9a (Homo sapiens, UniProt Q96KQ7); experiment: as above; assay type: cell-based, African green monkey; conditions: Cos-7 cells expressing HA-hG9a N, 2 μM, 24 h
T2 construct: transfected with a plasmid encoding full length HA-hG9a and treated with 2 μM UNC0646; expressed in transfected cells; host or cells: Cos-7
Experimental: as §1, §2, §3

[4] = test system: EHMT2 phosphorylation; experiment: Phosphorylation of EHMT2 in NALM-6 cells (pan ph-T immunoprecipitation, EHMT2 immunoblot); assay type: cell-based, human; conditions: NALM-6, 0.75 μM ZM447439, 24 h
Experimental: Cells were treated as indicated, and cell extracts were prepared in RIPA buffer ([…] Tris-HCl, pH 8, 150 mM NaCL, 1 mM EDTA, 1% NP-40, and 0.25% deoxycholate) supplemented with protease inhibitor tablets (Roche Molecular Biochemicals) and phosphatase inhibitors (1 mM NaF, 1 mM Na3VO4, and 1 mM β-glycerophosphate). Protein extracts were incubated overnight at 4° C. with shaking with 1 μg of antibodies against EHMT2 (Sigma G6919), EHMT1 (Millipore 09-078), or pan phospho-threonine (Millipore AB1607). Protein A/G plus agarose beads (Santa Cruz sc-2003) were added, and the mixture was incubated 2 h at 4° C. The immunoprecipitates were separated on SDS-PAGE. […]
FIGS. 48A, 48B, 48C, 48D, 48E, and 48F show the effect of AURKB inhibitors on EHMT2 phosphorylation and dex-induced cell death. […] In each condition, the value measured with dex was normalized to the fluorescence value measured with ethanol. Percentage of survival is shown as the mean±SEM of 4 independent experiments and p-values for individual dex concentrations were calculated using a paired t-test. *p≤0.05, **p≤0.01, * * *p≤0.001. […] EC50s were calculated as the concentration at which half the cells remained alive, compare to vehicle controls. Error bars depict the SEM of 4 independent experiments and p-value was calculated to compare ZM treatment to DMSO using a paired t-test **p≤0.01, * * *p≤0.001. […]

With `Clc1ccc(N/N=C(\c2ccccc2)c2ccccn2)nc1` [JIB-04, 5-chloro-N-[(E)-[phenyl(pyridin-2-yl)methylidene]amino]pyridin-2-amine] as the molecule, how does the “efficacy in mouse xenograft models” value [1] read?
The value was “effective”.

With `COc1cc2c(NC3CCN(C4CCCCC4)CC3)nc(N3CCCN(C(C)C)CC3)nc2cc1OCCCN1CCCCC1` [UNC0646] as the molecule, how does the “pan-methyllysine antibody signal on wild type hG9a” value [2] read?
The value was “strongly decreased”.

What about the “methylation of the N-terminal G9a fragment” value [3] of the same molecule?
The value was “decreased”.

Which “phosphorylation of EHMT2” value [4] does the source give for `COc1cc2c(Nc3ccc(NC(=O)c4ccccc4)cc3)ncnc2cc1OCCCN1CCOCC1` [ZM447439, N-[4-[[6-methoxy-7-(3-morpholin-4-ylpropoxy)quinazolin-4-yl]amino]phenyl]benzamide] here?
Its value is “reduced”.
